This note sets out measurements from patent publication US10626081B2, “Farnesoid X receptor agonists and uses thereof” (Metacrine, Inc., priority 2015, dated 2020).

For experiment [1], the target named is T1, FXR (Homo sapiens, UniProt Q96RI1).
T1 construct: expressed in transfected cells; host or cells: CV-1 cells
T1 sequence (Q96RI1 1-486): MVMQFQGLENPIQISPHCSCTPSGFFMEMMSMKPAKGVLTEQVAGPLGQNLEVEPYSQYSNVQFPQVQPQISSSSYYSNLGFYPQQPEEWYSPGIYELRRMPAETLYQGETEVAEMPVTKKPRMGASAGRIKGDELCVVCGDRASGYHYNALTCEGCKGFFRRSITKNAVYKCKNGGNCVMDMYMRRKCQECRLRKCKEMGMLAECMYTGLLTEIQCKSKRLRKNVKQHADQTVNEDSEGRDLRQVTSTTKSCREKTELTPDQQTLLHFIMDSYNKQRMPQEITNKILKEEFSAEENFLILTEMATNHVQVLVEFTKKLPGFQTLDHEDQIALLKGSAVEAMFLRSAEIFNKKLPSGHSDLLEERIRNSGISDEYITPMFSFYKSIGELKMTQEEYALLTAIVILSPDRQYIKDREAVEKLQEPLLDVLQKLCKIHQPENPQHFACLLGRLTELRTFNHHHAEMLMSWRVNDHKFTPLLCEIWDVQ
T1 sequence (P19793 1-462 partner): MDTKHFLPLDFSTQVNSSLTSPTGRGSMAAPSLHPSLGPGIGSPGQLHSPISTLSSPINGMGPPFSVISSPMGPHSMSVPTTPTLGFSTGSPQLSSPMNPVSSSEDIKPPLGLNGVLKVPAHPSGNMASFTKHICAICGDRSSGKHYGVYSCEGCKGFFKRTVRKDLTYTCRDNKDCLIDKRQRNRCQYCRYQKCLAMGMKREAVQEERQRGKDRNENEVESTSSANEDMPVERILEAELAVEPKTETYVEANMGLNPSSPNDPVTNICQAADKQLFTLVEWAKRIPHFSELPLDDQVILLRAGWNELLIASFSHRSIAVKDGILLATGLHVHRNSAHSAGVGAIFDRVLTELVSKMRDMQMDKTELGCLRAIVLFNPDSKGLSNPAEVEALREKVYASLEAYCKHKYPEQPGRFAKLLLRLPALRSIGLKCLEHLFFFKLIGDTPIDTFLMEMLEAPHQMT
As to the kind of experiment: In Vitro FXR Assay (PGL3): luciferase reporter in transfected CV-1 cells. The class given is cell-based. Conditions: CV-1 cells transfected with hFXR, hRXR, PGL3-ECRE*6-luc; 18 h incubation; luminescence. An outline of the steps:
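CV-1 cells in charcoal-stripped FBS were transiently co-transfected with full-length human FXR, RXR, an ECRE×6-luciferase reporter, β-gal and YFP plasmids. Transfected cells were reseeded onto half-log compound dilutions and incubated 18 h. Luciferase luminescence was read after lysis, and EC50 was determined.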
(In general: Reporter assays use an easily measured gene product as a stand-in for the process of interest.)

Experiment [2] deals with T1, FXR. The experiment is described as follows: In Vitro FXR Assay (TK): TK-ECRE-luc reporter in transfected CV-1 cells. The conditions noted are these: CV-1 cells transfected with hFXR, hRXR, 18 h incubation, luminescence. The class given is cell-based. The method, boiled down: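 CV-1 cells in charcoal-stripped FBS medium were transiently cotransfected with hFXR, hRXR, TK-ECRE-luc and pCMX-YFP plasmids. After 18 h, compounds serially diluted in DMSO were added for 18 h at 37 °C, 5% CO2, then cells were lysed and luminescence read.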

`COC(=O)/C=C/c1cccc(N(Cc2ccc(-c3ccc(N(C)C)c(OC)c3)cc2)C(=O)C2CCCCC2)c1` [compound 75, (E)-methyl 3-(3-(N-((4′-(dimethylamino)-3′-methoxy-[1,1′-biphenyl]-4-yl)methyl)cyclohexanecarboxamido)phenyl) acrylate]: the “Cmpd/Fex (ratio of the EC50 for the test compound relative to the EC50 of the Fexaramine control)” value at FXR [1] is “++ (‘++’ means Cmpd/Fex > 10 & < 100)”. Also, the EC50 (in general, the concentration at which the effect is half-maximal) on FXR [2] was in the range of 1 to 10 µM.

Consider `COC(=O)/C=C/c1cccc(N(Cc2ccc(N3CCOCC3)cc2)C(=O)C2CCCCC2)c1` [compound 77, (E)-Methyl 3-(3-(N-(4-morpholinobenzyl)cyclohexane-carboxamido)phenyl)acrylate], for which the “Cmpd/Fex (ratio of the EC50 for the test compound relative to the EC50 of the Fexaramine control)” value at FXR [1] is “+ (‘+’ means Cmpd/Fex > 100)”. For the same compound, on FXR [2], the EC50 was in the range of 1 to 10 µM.

Consider `COC(=O)/C=C/c1cccc(N(Cc2ccc(N3CCCCC3)cc2)C(=O)C2CCCCC2)c1` [compound 78, (E)-Methyl 3-(3-(N-(4-(piperidin-1-yl)benzyl)cyclohexanecarboxamido)phenyl) acrylate], for which the “Cmpd/Fex (ratio of the EC50 for the test compound relative to the EC50 of the Fexaramine control)” value on FXR [1] is given as “++ (‘++’ means Cmpd/Fex > 10 & < 100)”. Besides, at FXR [2], the EC50 was 1 to 10 µM.

Regarding `COC(=O)/C=C/c1cccc(N(Cc2cccc3ccccc23)C(=O)C2CCCCC2)c1` [compound 80, (E)-Methyl 3-(3-(N-(naphthalen-1-ylmethyl)cyclohexanecarboxamido)phenyl) acrylate], the “Cmpd/Fex (ratio of the EC50 for the test compound relative to the EC50 of the Fexaramine control)” value on FXR [1] is reported as “+ (‘+’ means Cmpd/Fex > 100)”. The EC50 at FXR [2] is > 10 µM.

For `COC(=O)/C=C/c1cccc(N(Cc2ccccc2-c2ccccc2)C(=O)C2CCCCC2)c1` [compound 81, (E)-Methyl 3-(3-(N-([1,1′-biphenyl]-2-ylmethyl)cyclohexanecarboxamido)phenyl) acrylate], the “Cmpd/Fex (ratio of the EC50 for the test compound relative to the EC50 of the Fexaramine control)” value on FXR [1] is listed as “+ (‘+’ means Cmpd/Fex > 100)”. Moreover, the EC50 at FXR [2] was > 10 µM.

Take `COC(=O)/C=C/c1cccc(N(Cc2cccc(-c3ccccc3)c2)C(=O)C2CCCCC2)c1` [compound 82, (E)-Methyl 3-(3-(N-([1,1′-biphenyl]-3-ylmethyl)cyclohexanecarboxamido)phenyl) acrylate]: the “Cmpd/Fex (ratio of the EC50 for the test compound relative to the EC50 of the Fexaramine control)” value at FXR [1] was “+ (‘+’ means Cmpd/Fex > 100)”. Further, on FXR [2], the EC50 was > 10 µM.

In the case of `CC(C)OC(=O)/C=C/c1cccc(N(Cc2ccc(-c3ccc(N(C)C)cc3)cc2)C(=O)C2CCCCC2)c1` [compound 83, (E)-iso-Propyl 3-(3-(N-((4′-(dimethylamino)-[1,1′-biphenyl]-4-yl)methyl)cyclohexanecarboxamido)phenyl) acrylate], the “Cmpd/Fex (ratio of the EC50 for the test compound relative to the EC50 of the Fexaramine control)” value on FXR [1] is given as “+++ (‘+++’ means Cmpd/Fex < 10)”. The EC50 at FXR [2] was 1 to 10 µM.

Regarding `CCOC(=O)/C=C/c1cccc(N(Cc2ccc(-c3ccc(N(C)C)cc3)cc2)C(=O)C2CCCCC2)c1` [compound 84, (E)-Ethyl 3-(3-(N-((4′-(dimethylamino)-[1,1′-biphenyl]-4-yl)methyl)cyclohexanecarboxamido)phenyl) acrylate], the “Cmpd/Fex (ratio of the EC50 for the test compound relative to the EC50 of the Fexaramine control)” value at FXR [1] was “+++ (‘+++’ means Cmpd/Fex < 10)”. In addition, the EC50 at FXR [2] was ≤ 1 µM.

For `CCc1cc(/C=C/C(=O)OC)cc(N(Cc2ccc(-c3ccc(N(C)C)cc3)cc2)C(=O)C2CCCCC2)c1` [compound 85, (E)-Methyl 3-(3-(N-((4′-(dimethylamino)-[1,1′-biphenyl]-4-yl)methyl)cyclohexanecarboxamido)-5-ethylphenyl)acrylate], the “Cmpd/Fex (ratio of the EC50 for the test compound relative to the EC50 of the Fexaramine control)” value on FXR [1] is given as “+++ (‘+++’ means Cmpd/Fex < 10)”. Besides, on FXR [2], the EC50 lay in the range of 1 to 10 µM.

In the case of `CN(C)c1ccc(-c2ccc(CN(C(=O)C3CCCCC3)c3cccc(/C=C/C(=O)OCCO)c3)cc2)cc1` [compound 86, (E)-2-Hydroxyethyl 3-(3-(N-((4′-(dimethylamino)-[1,1′-biphenyl]-4-yl)methyl)cyclohexanecarboxamido)phenyl) acrylate], the “Cmpd/Fex (ratio of the EC50 for the test compound relative to the EC50 of the Fexaramine control)” value at FXR [1] is listed as “+++ (‘+++’ means Cmpd/Fex < 10)”. Besides, the EC50 on FXR [2] fell in the range of 1 to 10 µM.

As for `COC(=O)C#Cc1cccc(N(Cc2ccc(-c3ccc(N(C)C)cc3)cc2)C(=O)C2CCCCC2)c1` [compound 87, Methyl 3-(3-(N-((4′-(Dimethylamino)-[1,1′-biphenyl]-4-yl)methyl)cyclohexanecarboxamido)phenyl) propiolate], the “Cmpd/Fex (ratio of the EC50 for the test compound relative to the EC50 of the Fexaramine control)” value on FXR [1] is on record as “+++ (‘+++’ means Cmpd/Fex < 10)”. For the same compound, the EC50 on FXR [2] is ≤ 1 µM.

Consider `CN(C)c1ccc(-c2ccc(CN(C(=O)C3CCCCC3)c3cccc(/C=C/C(=O)O)c3)cc2)cc1` [compound 88, (E)-3-(3-(N-((4′-(dimethylamino)-[1,1′-biphenyl]-4-yl)methyl)cyclohexanecarboxamido)phenyl)acrylic acid], for which the “Cmpd/Fex (ratio of the EC50 for the test compound relative to the EC50 of the Fexaramine control)” value at FXR [1] was “+ (‘+’ means Cmpd/Fex > 100)”. Also, on FXR [2], the EC50 was > 10 µM.

In the case of `CN(C)c1ccc(-c2ccc(CN(c3cccc(/C=C/C(=O)O)c3)C(=O)[C@H]3CC[C@H](O)CC3)cc2)cc1` [compound 89, (E)-3-(3-((1s,4s)-N-((4′-(Dimethylamino)-[1,1′-biphenyl]-4-yl)methyl)-4-hydroxycyclohexane-carboxamido)phenyl) acrylic acid], the “Cmpd/Fex (ratio of the EC50 for the test compound relative to the EC50 of the Fexaramine control)” value on FXR [1] is listed as “+ (‘+’ means Cmpd/Fex > 100)”. Also, the EC50 at FXR [2] is > 10 µM.

Consider `COC(=O)CCc1cc(C)cc(N(Cc2ccc(-c3ccc(N(C)C)cc3)cc2)C(=O)C2CCCCC2)c1` [compound 90, Methyl 3-(3-(N-((4′-(dimethylamino)-[1,1′-biphenyl]-4-yl)methyl)cyclohexanecarboxamido)-5-methylphenyl)propanoate], for which, at FXR [1], the “Cmpd/Fex (ratio of the EC50 for the test compound relative to the EC50 of the Fexaramine control)” value is “+++ (‘+++’ means Cmpd/Fex < 10)”. Besides, the EC50 on FXR [2] lay in the range of 1 to 10 µM.

For the compound `COC(=O)CCc1cc(N(Cc2ccc(-c3ccc(N(C)C)cc3)cc2)C(=O)C2CCCCC2)ccc1C` [compound 91, Methyl 3-(5-(N-((4′-(dimethylamino)-[1,1′-biphenyl]-4-yl)methyl)cyclohexanecarboxamido)-2-methylphenyl)propanoate], on FXR [1], the “Cmpd/Fex (ratio of the EC50 for the test compound relative to the EC50 of the Fexaramine control)” value is on record as “+ (‘+’ means Cmpd/Fex > 100)”. The EC50 on FXR [2] was > 10 µM.

For `COC(=O)CCc1cccc(N(Cc2ccc(-c3ccc(N(C)C)cc3)cc2)C(=O)C2CCCCC2)c1C` [compound 92, Methyl 3-(3-(N-((4′-(dimethylamino)-[1,1′-biphenyl]-4-yl)methyl)cyclohexanecarboxamido)-2-methylphenyl)propanoate], the “Cmpd/Fex (ratio of the EC50 for the test compound relative to the EC50 of the Fexaramine control)” value on FXR [1] is reported as “+ (‘+’ means Cmpd/Fex > 100)”. Also, the EC50 on FXR [2] fell in the range of 1 to 10 µM.

`COC(=O)CCc1ccc(C)c(N(Cc2ccc(-c3ccc(N(C)C)cc3)cc2)C(=O)C2CCCCC2)c1` [compound 93, Methyl 3-(3-(N-((4′-(dimethylamino)-[1,1′-biphenyl]-4-yl)methyl)cyclohexanecarboxamido)-4-methylphenyl)propanoate]: the “Cmpd/Fex (ratio of the EC50 for the test compound relative to the EC50 of the Fexaramine control)” value at FXR [1] is reported as “++ (‘++’ means Cmpd/Fex > 10 & < 100)”. Also, the EC50 at FXR [2] is > 10 µM.
